Biological target: T1, Recombinant human FAP (Homo sapiens, UniProt Q12884)
T1 construct: purchased R&D systems
T1 sequence (Q12884 1-760): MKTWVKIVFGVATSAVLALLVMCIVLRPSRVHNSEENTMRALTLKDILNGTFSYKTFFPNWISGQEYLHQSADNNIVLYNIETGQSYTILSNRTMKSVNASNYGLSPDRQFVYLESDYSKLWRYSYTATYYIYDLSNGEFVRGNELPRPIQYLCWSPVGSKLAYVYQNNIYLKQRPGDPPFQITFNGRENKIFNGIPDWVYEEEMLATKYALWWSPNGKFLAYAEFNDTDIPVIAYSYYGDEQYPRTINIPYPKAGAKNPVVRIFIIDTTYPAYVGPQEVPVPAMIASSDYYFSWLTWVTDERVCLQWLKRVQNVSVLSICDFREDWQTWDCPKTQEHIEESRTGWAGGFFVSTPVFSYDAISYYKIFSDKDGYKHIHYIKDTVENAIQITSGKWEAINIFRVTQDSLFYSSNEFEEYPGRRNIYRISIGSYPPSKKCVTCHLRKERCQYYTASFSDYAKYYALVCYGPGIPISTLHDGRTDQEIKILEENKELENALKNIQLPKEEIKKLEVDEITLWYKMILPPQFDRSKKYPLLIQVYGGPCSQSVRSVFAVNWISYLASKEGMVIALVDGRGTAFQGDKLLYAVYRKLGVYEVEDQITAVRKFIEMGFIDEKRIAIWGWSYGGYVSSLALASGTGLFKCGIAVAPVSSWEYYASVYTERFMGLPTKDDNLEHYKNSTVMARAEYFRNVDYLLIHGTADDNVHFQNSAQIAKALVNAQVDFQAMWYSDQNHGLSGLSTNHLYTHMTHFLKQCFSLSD
Assay: FAP inhibition, fluorogenic substrate Z-Gly-Pro-AMC
Type: biochemical
Conditions: recombinant human FAP, substrate Z-Gly-Pro-AMC
Procedure, shortened: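 Recombinant human FAP, 10 ng per reaction, in 50 mM Tris pH 7.5 with 1 M NaCl and 1 mg/ml BSA at 25° C; substrate Z-Gly-Pro-AMC, ≤0.1% DMSO. AMC fluorescence read at ex 380/em 460 nm; % signal-rate decrease vs no-inhibitor control, 8-point curves fitted to a four-parameter logistic for IC50.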

Row | Compound | IC50
1 | N#C[C@@H]1C[C@H](F)CN1C(=O)CN1CC[C@H](Nc2cccc3ncccc23)C1 [Example 228, (2S,4S)-4-fluoro-1-[2-[(3S)-3-(5-quinolylamino)pyrrolidin-1-yl]acetyl]pyrrolidine-2-carbonitrile] | 1.21 nM
2 | N#Cc1cnc2cccc(N[C@H]3CCN(CC(=O)N4CCC[C@H]4C#N)C3)c2c1 [Example 232, 5-[[(3S)-1-[2-oxo-2-[(2S)-2-cyanopyrrolidin-1-yl]ethyl]pyrrolidin-3-yl]amino]quinoline-3-carbonitrile] | 1.3 nM
3 | COc1cnc2cccc(N[C@H]3CCN(CC(=O)N4CCC[C@H]4C#N)C3)c2c1 [Example 233, (2S)-1-[2-[(3S)-3-[(3-methoxy-5-quinolyl)amino]pyrrolidin-1-yl]acetyl]pyrrolidine-2-carbonitrile] | 0.7 nM
4 | N#C[C@@H]1CCCN1C(=O)CN1CC[C@H](Nc2ccc(F)c3ncccc23)C1 [Example 244, (2S)-1-[2-[(3S)-3-[(8-fluoro-5-quinolyl)amino]pyrrolidin-1-yl]acetyl]pyrrolidine-2-carbonitrile] | 2.2 nM
5 | N#C[C@@H]1CCCN1C(=O)CN1CC[C@H](Nc2ccc(C(F)(F)F)c3ncccc23)C1 [Example 245, (2S)-1-[2-[(3S)-3-[[8-(trifluoromethyl)-5-quinolyl]amino]pyrrolidin-1-yl]acetyl]pyrrolidine-2-carbonitrile] | 1 nM
6 | N#Cc1ccc(N[C@H]2CCN(CC(=O)N3CCC[C@H]3C#N)C2)c2cccnc12 [Example 247, 5-[[(3S)-1-[2-oxo-2-[(2S)-2-cyanopyrrolidin-1-yl]ethyl]pyrrolidin-3-yl]amino]quinoline-8-carbonitrile] | 1.3 nM
7 | N#C[C@@H]1C[C@H](F)CN1C(=O)CN1CC[C@H](Nc2cccc3ncc(F)cc23)C1 [Example 255, (2S,4S)-4-fluoro-1-[2-[(3S)-3-[(3-fluoro-5-quinolyl)amino]pyrrolidin-1-yl]acetyl]pyrrolidine-2-carbonitrile] | 1 nM
8 | COc1ccc(N[C@H]2CCN(CC(=O)N3C[C@@H](F)C[C@H]3C#N)C2)c2cccnc12 [Example 263, (2S,4S)-4-fluoro-1-[2-[(3S)-3-[(8-methoxy-5-quinolyl)amino]pyrrolidin-1-yl]acetyl]pyrrolidine-2-carbonitrile] | 1.1 nM
9 | N#C[C@@H]1C[C@H](F)CN1C(=O)CN1CC[C@H](Nc2ccc(OC(F)(F)F)c3ncccc23)C1 [Example 266, (2S,4S)-4-fluoro-1-[2-[(3S)-3-[[8-(trifluoromethoxy)-5-quinolyl]amino]pyrrolidin-1-yl]acetyl]pyrrolidine-2-carbonitrile] | 0.8 nM
10 | N#C[C@@H]1C[C@H](F)CN1C(=O)CN1CC[C@H](Nc2ccc(OCc3ccccc3)c3ncccc23)C1 [Example 268, (2S,4S)-4-fluoro-1-[2-[(3S)-3-[(8-benzyloxy-5-quinolyl)amino]pyrrolidin-1-yl]acetyl]pyrrolidine-2-carbonitrile] | 1 nM

The remaining lines, values ahead:

Row | IC50 | Compound
11 | 4 nM | N#C[C@@H]1C[C@H](F)CN1C(=O)CN1CCC(Nc2ccc(C(F)(F)F)c3ncccc23)CC1 [Example 334, (2S,4S)-4-fluoro-1-[2-[4-[[8-(trifluoromethyl)-5-quinolyl]amino]-1-piperidyl]acetyl]pyrrolidine-2-carbonitrile]
12 | 2.2 nM | N#C[C@@H]1C[C@H](F)CN1C(=O)CN1CCC(Nc2ccc(OC(F)(F)F)c3ncccc23)CC1 [Example 347, (2S,4S)-4-fluoro-1-[2-[4-[[8-(trifluoromethoxy)-5-quinolyl]amino]-1-piperidyl]acetyl]pyrrolidine-2-carbonitrile]
13 | 2.1 nM | COc1cnc2cccc(NC3CCN(CC(=O)N4C[C@@H](F)C[C@H]4C#N)CC3)c2c1 [Example 348, (2S,4S)-4-fluoro-1-[2-[4-[(3-methoxy-5-quinolyl)amino]-1-piperidyl]acetyl]pyrrolidine-2-carbonitrile]
14 | 1.6 nM | N#C[C@@H]1C[C@H](F)CN1C(=O)CN1CCC(Nc2cccc3ncc(F)cc23)CC1 [Example 349, (2S,4S)-4-fluoro-1-[2-[4-[(3-fluoro-5-quinolyl)amino]-1-piperidyl]acetyl]pyrrolidine-2-carbonitrile]
15 | 2.7 nM | N#C[C@@H]1C[C@H](F)CN1C(=O)CN1CCC(Nc2cccc3cnc(Cl)cc23)CC1 [Example 352, (2S,4S)-1-[2-[4-[(3-chloro-5-isoquinolyl)amino]-1-piperidyl]acetyl]-4-fluoro-pyrrolidine-2-carbonitrile]
16 | 2.7 nM | COc1cc2c(NC3CCN(CC(=O)N4C[C@@H](F)C[C@H]4C#N)CC3)cccc2cn1 [Example 355, (2S,4S)-4-fluoro-1-[2-[4-[(3-methoxy-5-isoquinolyl)amino]-1-piperidyl]acetyl]pyrrolidine-2-carbonitrile]
17 | 1.2 nM | Cc1ccc2nccc(OC3CCN(CC(=O)N4C[C@@H](F)C[C@H]4C#N)CC3)c2c1 [Example 410, (2S,4S)-4-fluoro-1-[2-[4-[(6-methyl-4-quinolyl)oxy]-1-piperidyl]acetyl]pyrrolidine-2-carbonitrile]

— patent publication US11655235B2, “Pyrrolidine and piperidine compounds” (YUHAN CORPORATION, priority 2019, dated 2023)
